The text below walks through data of patent publication US9200008B2 (ASKA PHARMACEUTICAL CO., LTD., priority 2010, dated 2015).

Holding throughout (assay type): cell-based
Experiment [1] relates to Human prostate cancer cell lines (PC-3 cells). The experiment is described as follows: Measurement of cell death-inducing activity (Test Example 1). The conditions noted are these: PC-3, 48 h, 48 hours after addition, tested at 10, 1, 0.1, 0.025 and 0.00625 μmol/L, qualitative evaluation of 10 fields, read-out: Concentration showing the cell death-inducing activity (cell death-inducing rate not less than 40%). Summed up:
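Compound treatment lasted 48 h at 10 to 0.00625 μmol/L (five levels, DMSO as control) on PC-3 cells pre-cultured 48 h at 37 °C, 5% CO2 after seeding at 1×10^5 cells/well. A cell death-inducing rate of 40% or more counted as active.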

The test system is the same in experiment [2]. Kind of experiment: Calculation of IC50 value, cell proliferation inhibitory activity by XTT assay, PC-3 cells (Test Example 2). The conditions noted are these: 72 hours culture with test substance, read-out: Cell proliferation inhibitory activity (IC50 value calculated from XTT assay), concentration showing 50% inhibitory activity, human prostate cancer cell lines (PC-3). The protocol:
(§1) Human prostate cancer cell lines (PC-3 cells) and human fibrosarcoma cell lines (HT1080 cells) were seeded to 96-well microplates so as to provide a density of 1,300 cells/well and that of 3,100 cells/well, respectively. In the presence of 5% CO2 at 37° C., the PC-3 cells and the HT1080 cells were cultured for 48 hours and 24 hours, respectively. Thereafter, each one of test substances was added to each well. As a control of a medical agent, DMSO was added. After the addition, both cells were continuously cultured for 72 hours. Then, an XTT labeling reagent containing 1 mg/mL of sodium 3′-[1-(phenylaminocarbonyl)-3,4-tetrazolium]-bis(4-methoxy-6-nitro)benzenesulfonate hydrate (XTT) and an electronic coupling reagent containing 1.25 mM N-methyl dibenzopyrazine methyl sulfate (PMS) were mixed at a ratio of 50:1 to give an XTT labeling mixture. The XTT labeling mixture was added to each well in an amount of 50 μL per well, and the cells were cultured for another 4 hours. A culture solution containing a test substance was used as a blank, and the absorbencies of a culture solution containing the XTT labeling mixture at a measurement wavelength (450 nm) and a control wavelength (650 nm) were measured by a plate reader. The difference between these absorbencies was evaluated as an activity of dehydrogenase of mitochondria derived from living cells. With respect to the following model formula of sigmoid curve, the convergent solution of each variable (gain, range, base and α) that minimize the residual sum of squares of the difference between these absorbencies and regressive prediction was determined, and then IC50 (=e^α) of each test substance was calculated.
The IC50 values of the compounds represented by the formula (1) or the salts thereof on two cancer cell lines according to the method of Test Example 2 were calculated, and the results are shown in Table A.

The subject of experiment [3] is human fibrosarcoma cell lines (HT1080 cells). Kind of experiment: Calculation of IC50 value, cell proliferation inhibitory activity by XTT assay, HT1080 cells (Test Example 2). The protocol:
as §1, with “Then, an XTT labeling reagent containing 1 mg/mL of sodium 3′-[1-(phenylaminocarbonyl)-3,4-tetrazolium]-bis(4-methoxy-6-nitro)benzenesulfonate hydrate (XTT) and an electronic coupling reagent containing 1.25 mM N-methyl dibenzopyrazine methyl sulfate (PMS) were mixed at a ratio of 50:1 to give an XTT labeling mixture.” left out

Setting [4] is: HT1080 cells, 72 hours culture with test substance, XTT assay, read-out: Cell proliferation inhibitory activity (IC50 value calculated from XTT assay), concentration showing 50% inhibitory activity, human fibrosarcoma cell lines (HT1080).

Molecules are shown by their SMILES. Where two headings read alike, the source gives them in different places.

For the compound `COc1cc(Cl)ccc1-c1nc(C)c(NC(=O)OCc2ccc3c(c2)nc2n3CCCC2)s1` [Example 9-1, [2-(4-Chloro-2-methoxyphenyl)-4-methylthiazol-5-yl]carbamic acid 1,2,3,4-tetrahydrobenzo[4,5]imidazo[1,2-a]pyridin-7-ylmethyl ester], the minimal effective concentration in experiment [1] was 0.025 µM. Besides, the IC50 in experiment [2] is 6.7 nM; in experiment [3] (setting [4]), 15.1 nM.
With `CCn1nnc2cc(COC(=O)Nc3sc(-c4ccc(C)cc4OC)nc3C)ccc21` [Example 9-25], the IC50 in experiment [2] was 0.81 nM; in experiment [3] (read-out: Cell proliferation inhibitory activity (IC50 value calculated from XTT assay), concentration showing 50% inhibitory activity, human fibrosarcoma cell lines (HT1080), HT1080 cells, 72 hours culture with test substance, XTT assay), 1.64 nM.
For `CCn1cnc2cc(COC(=O)Nc3sc(-c4ccccc4OC)nc3C)ccc21` [Example 9-57], the minimal effective concentration in experiment [1] turned out to be 0.025 µM. Further, the IC50 in experiment [2] is 2.17 nM.
Turning to `COc1cc(C)ccc1-c1nc(C)c(NC(=O)OCc2ccc3c(c2)nc2n3CCOC2)s1` [Example 9-94], in experiment [1], the minimal effective concentration was determined as 0.00625 µM. For the same compound, the figures for the IC50 in experiment [2] and in experiment [3] (72 h) were 0.56 nM and 1.75 nM, respectively.
Regarding `CCn1cc2cc(COC(=O)Nc3sc(-c4ccc(C)cc4OC)nc3C)ccc2n1` [Example 9-155], in experiment [1], the minimal effective concentration came out at 0.025 µM. Further, the IC50 in experiment [2] was 6.77 nM.
For `CCn1cc2cc(NC(=O)OCc3sc(-c4ccc(C)cc4C)nc3C)ccc2n1` [Example 13-53], in that order: 0.1 µM and 6.35 nM.
Take `CCn1cnc2cc(NC(=O)OCc3cc(-c4ccc(C)cc4OC)nn3C)ccc21` [Example 13-90]: the minimal effective concentration in experiment [1] is 0.00625 µM. In addition, the IC50 in experiment [2] was 0.43 nM.
Take `COc1cc(C)ccc1-c1cc(COC(=O)Nc2ccc3c(c2)nc2n3CCOC2)n(C)n1` [Example 13-101]: the minimal effective concentration in experiment [1] was 0.00625 µM. Moreover, the figures for the IC50 in experiment [2] and in experiment [3] (setting [4]) were 1.64 nM and 4.19 nM, respectively.
As for `COc1ccccc1-c1nscc1NC(=O)OCc1ccc2c(c1)ncn2C` [Example 45-6], in experiment [1], the minimal effective concentration is 1 µM.
Same read-out and setting: the result for `CCn1ncc2cc(COC(=O)Nc3csnc3-c3ccc(Cl)cc3OC)ccc21` [Example 45-7] reads 0.1 µM.
Turning to `Cn1cnc2cc(NC(=O)OCc3cc(-c4ccc(Cl)cc4Cl)ns3)ccc21` [Example 47-1], the minimal effective concentration in experiment [1] is 0.1 µM.
On the same count and under the same terms, to `COc1ccccc1-c1cc(COC(=O)Nc2ccc3c(c2)ncn3C)sn1` [Example 47-2] belongs 1 µM; to `COc1cc(C)ccc1-c1cc(COC(=O)Nc2ccc3c(c2)ncn3C)sn1` [Example 47-3], 0.00625 µM.
As for `COc1cc(Cl)ccc1-c1cc(COC(=O)Nc2ccc3c(c2)ncn3C)sn1` [Example 47-4], in experiment [1], the minimal effective concentration came out at 0.00625 µM.
Same read-out and setting: to `COc1ccccc1-c1cc(COC(=O)Nc2ccc3c(c2)nc2n3CCCC2)sn1` [Example 47-5] belongs 0.1 µM; to `COc1cc(C)ccc1-c1cc(COC(=O)Nc2ccc3c(c2)nc2n3CCCC2)sn1` [Example 47-6], 0.025 µM; to `COc1cc(Cl)ccc1-c1cc(COC(=O)Nc2ccc3c(c2)nc2n3CCCC2)sn1` [Example 47-7], 0.00625 µM.
On the same count and under the same terms, the result for `O=C(Nc1ccc2c(c1)nc1n2CCCC1)OCc1cc(-c2ccc(Cl)cc2Cl)ns1` [Example 47-8] reads 1 µM; that for `COc1cc(Cl)ccc1-c1cc(COC(=O)Nc2ccc3c(c2)nc2n3CCOC2)sn1` [Example 47-9], 0.00625 µM; that for `CCn1cnc2cc(NC(=O)OCc3cc(-c4ccccc4OC)ns3)ccc21` [Example 47-10], 10 µM.
Same read-out and setting: the result for `CCn1cnc2cc(NC(=O)OCc3cc(-c4ccc(Cl)cc4OC)ns3)ccc21` [Example 47-11] reads 0.1 µM; that for `CCn1cnc2cc(NC(=O)OCc3cc(-c4ccc(Cl)cc4Cl)ns3)ccc21` [Example 47-12], 10 µM; that for `COc1cc(Cl)ccc1-c1cc(C(=O)N/N=C/c2ccc3c(c2)ncn3C)sn1` [Example 49-1], 0.025 µM.
For `COc1ccccc1-c1cc(C(=O)N/N=C/c2ccc3c(c2)ncn3C)sn1` [Example 49-2, 3-(2-Methoxyphenyl)isothiazole-5-carboxylic acid[1-(1-methyl-1H-benzimidazol-5-yl)methylidene]hydrazide], the minimal effective concentration in experiment [1] stood at 0.025 µM.
Same read-out and setting: to `O=C(N/N=C/c1ccc2c(c1)nc1n2CCOC1)c1cc(-c2ccc(Cl)cc2Cl)ns1` [Example 49-3] belongs 10 µM; to `COc1ccccc1-c1cc(C(=O)N/N=C/c2ccc3c(c2)nc2n3CCOC2)sn1` [Example 49-4, 3-(2-Methoxyphenyl)isothiazole-5-carboxylic acid[1-(3,4-dihydro-1H-2-oxa-4a,9-diazafluoren-7-yl)methylidene]hydrazide], 10 µM; to `COc1cc(Cl)ccc1-c1cc(C(=O)N/N=C/c2ccc3c(c2)nc2n3CCOC2)sn1` [Example 49-5, 3-(4-Chloro-2-methoxyphenyl)isothiazole-5-carboxylic acid[1-(3,4-dihydro-1H-2-oxa-4a,9-diaza-fluoren-7-yl)methylidene]hydrazide], 1 µM.
Still for that read-out and setting: to `CCn1ncc2cc(/C=N/NC(=O)c3cc(-c4ccccc4OC)ns3)ccc21` [Example 49-7, 3-(2-Methoxyphenyl)isothiazole-5-carboxylic acid[1-(1-ethyl-1H-indazol-5-yl)methylidene]hydrazide] belongs 1 µM.
Take `CCn1ncc2cc(/C=N/NC(=O)c3cc(-c4ccc(Cl)cc4OC)ns3)ccc21` [Example 49-8]: the minimal effective concentration in experiment [1] came out at 1 µM.
